Km data for one molecule are collected here from article PMC12418644, “Production, optimization and characterization of esterase isolated from a new endophytic Trichoderma afroharzianum strain AUMC 16,433 and its applications in dye decolorization” (Microbial Cell Factories, 2025).

For the assay, the system named is T1, T. afroharzianum esterase (purified extracellular esterase).
T1 construct: 43 kDa by SDS-PAGE and gel filtration; monomeric
The assay is described as follows: p-nitrophenol release at […] nm, Lineweaver-Burk plot. The class given is biochemical, Trichoderma afroharzianum. As to conditions: 50 mM Tris pH 8, 37 °C (standard assay), 1-10 mM substrate.

Molecules are shown by their SMILES.

The term Km denotes the concentration of substrate that gives half-maximal velocity. With `CC(=O)Oc1ccc([N+](=O)[O-])cc1` [p-NPA, p-nitrophenyl acetate], the Michaelis constant (Km) was found to be 3.33 mM.
